Measured values: ChEMBL document CHEMBL3244202, “Synthesis and analgesic-antiinflammatory activity of some 4- and 5-substituted heteroarylsalicylic acids” (J Med Chem, 1978)
≈ marks a conversion by molar mass, not a printed value.

How the values were obtained:
Rattus norvegicus [1] = test: Antiinflammatory activity in po dosed rat assessed as inhibition of carrageenan-induced paw edema; type: functional
Rattus norvegicus [2] = test: Analgesic activity in po dosed rat by hyperesthesia test; type: functional
Homo sapiens = species: Homo sapiens; test: Inhibition of prostaglandin synthetase (unknown origin)
Rattus norvegicus [3] = test: Antiinflammatory activity in po dosed rat assessed as reduction in adjuvant arthritis-induced lesion administered on days 17 to 20 post adjuvant arthritis-challenge measured on day 20; type: functional; settings: 480 h
Rattus norvegicus [4] = test: Antiinflammatory activity in po dosed rat assessed as reduction in adjuvant arthritis-induced lesion administered for 1 to 14 days measured on day 14; type: functional
Rattus norvegicus [5] = test: Gastrointestinal toxicity in rat assessed as gastric hemorrhage administered on days 17 to 20 measured on day 20; type: organism-based, Stomach; settings: in vivo
Rattus norvegicus [6] = test: Antipyretic activity in po dosed rat administered on days 17 to 20 measured on day 20; settings: 480 h
Canis familiaris = test: Antiinflammatory activity in po dosed dog assessed as reduction in urate synovitis measured after 2 hrs; type: functional; settings: Canis lupus familiaris
Rattus norvegicus [7] = test: Antiinflammatory activity in po dosed Wistar rat assessed as reduction in adjuvant arthritis-induced lesion administered on days -1 through 1 measured on days 0 and 14
[8] = Aqueous solubility of the compound in phosphate buffer at pH 7; type: physicochemical
Rattus norvegicus [9] = test: Antipyretic activity in po dosed rat assessed as dose required to produce drop in body temperature of 1 degC administered on days 17 to 20 measured on day 20; type: functional; settings: 480 h

| Structure (SMILES) | ED50 (Rattus norvegicus [1]) [mg/kg] | also measured |
| --- | --- | --- |
| O=C(O)c1cc(-c2cocn2)ccc1O | 110 |  |
| CC(=O)Oc1ccccc1C(=O)O [ASPIRIN] | 90 | ED50 (Rattus norvegicus [2]): 90 mg/kg; ID50 (Homo sapiens): 5 µg/mL (≈ 0.0278 mM); ED50 (Rattus norvegicus [3]): 25 mg/kg; ED50 (Rattus norvegicus [4]): 33 mg/kg; ED50 (Rattus norvegicus [5]): 16 mg/kg; ED50 (Rattus norvegicus [6]): 43 mg/kg; ED50 (Canis familiaris): 68 mg/kg; ED50 (Rattus norvegicus [7]): 46 mg/kg |
| O=C(O)c1cc(-n2ccnn2)ccc1O | 150 |  |
| O=C(O)c1cc(-c2nccs2)ccc1O | > 250 |  |
| O=C(O)c1cc(-n2ccnc2)ccc1O | 75 | ED50 (Rattus norvegicus [2]): 65 mg/kg; solubility [8]: 2000 µg/mL (≈ 9.8 mM) |
| O=C(O)c1ccc(-c2cscn2)cc1O | 70 | ED50 (Rattus norvegicus [2]): > 80 mg/kg; solubility [8]: 8700 µg/mL (≈ 39.3 mM) |
| O=C(O)c1cc(-c2ncco2)ccc1O | 100 | solubility [8]: 6000 µg/mL (≈ 29.2 mM) |
| O=C(O)c1cc(-n2cnnc2)ccc1O | > 250 |  |
| O=C(O)c1ccccc1O [SALICYLIC ACID] | 200 | ED50 (Rattus norvegicus [2]): > 150 mg/kg |
| O=C(O)c1cc(C2N=NN=N2)ccc1O | 110 | solubility [8]: 1700 µg/mL (≈ 8.25 mM) |
| O=C(O)c1cc(-c2cncs2)ccc1O | > 200 |  |
| O=C(O)c1cc(-c2cccnc2)ccc1O | > 250 |  |
| O=C(O)c1cc(-c2ccccn2)ccc1O | 200 |  |
| O=C(O)c1cc(-c2csnn2)ccc1O | > 200 |  |
| O=C(O)c1cc(-c2cc[nH]n2)ccc1O | > 250 |  |
| O=C(O)c1cc(-c2c[nH]cn2)ccc1O | 100 | solubility [8]: 1100 µg/mL (≈ 5.39 mM) |
| O=C(O)c1cc(-c2ncc[nH]2)ccc1O | 200 |  |

| Structure (SMILES) | ED50 (Rattus norvegicus [1]) [mg/kg] | also measured |
| --- | --- | --- |
| O=C(O)c1cc(-n2cccc2)ccc1O | 50 | ED50 (Rattus norvegicus [2]): 30 mg/kg; solubility [8]: 8600 µg/mL (≈ 42.3 mM); ID50 (Homo sapiens): 0.3 µg/mL (≈ 0.00148 mM); ED50 (Rattus norvegicus [3]): 35 mg/kg; ED50 (Rattus norvegicus [4]): 64 mg/kg; ED50 (Rattus norvegicus [5]): > 800 mg/kg; ED10 (Rattus norvegicus [9]): 401 mg/kg; ED50 (Canis familiaris): 39 mg/kg; ED50 (Rattus norvegicus [7]): 58 mg/kg |
| O=C(O)c1cc(-c2ccno2)ccc1O | 110 |  |
| O=C(O)c1cc(-c2cccs2)ccc1O | 60 | solubility [8]: 7000 µg/mL (≈ 31.8 mM) |
| O=C(O)c1cc(-c2ccns2)ccc1O | 80 | ED50 (Rattus norvegicus [2]): > 80 mg/kg; solubility [8]: 7300 µg/mL (≈ 33 mM) |
| O=C(O)c1cc(-c2cscn2)ccc1O | 95 | ED50 (Rattus norvegicus [2]): 90 mg/kg; solubility [8]: 2700 µg/mL (≈ 12.2 mM) |
| O=C(O)c1cc(-n2nccn2)ccc1O | 150 |  |
| O=C(O)c1cc(-c2ccc(F)cc2F)ccc1O [DIFLUNISAL] | 9.8 | ED50 (Rattus norvegicus [2]): 4.6 mg/kg |
| O=C(O)c1ccc(-c2ncco2)cc1O | > 250 |  |
| O=C(O)c1cc(-c2ncccn2)ccc1O | 100 | solubility [8]: 6000 µg/mL (≈ 27.8 mM) |
| O=C(O)c1cc(-n2cccn2)ccc1O | 200 |  |
| CC(=O)Oc1ccc(-n2cccc2)cc1C(=O)O | 42 | ED50 (Rattus norvegicus [2]): 35 mg/kg |
| O=C(O)c1ccc(-c2nccs2)cc1O | 110 |  |
| O=C(O)c1cc(-c2cnco2)ccc1O | > 200 |  |
| O=C(O)c1cc(-c2ccncn2)ccc1O | > 200 |  |
| O=C(O)c1ccc(-n2cccc2)cc1O | 200 |  |
| CCCCOC(=O)Oc1ccc(-n2cccc2)cc1C(=O)O | 52 | ED50 (Rattus norvegicus [2]): 38 mg/kg |
| O=C(O)c1cc(-n2cncn2)ccc1O | 200 |  |
